Where a name gives a salt, the structure may show the parent alone. Marks after values point to notes of the source that are not given here.
Columns and labels:
[1] = system: cholinesterase; settings: Chinese Patent No. ZL 03104541.3; result in words; cited from earlier work
[2] = system: aconitine-induced arrhythmia in rats; test: Aconitine-induced arrhythmia in rats; format: in vivo, Wistar rats; settings: for Occurrence time CA / Occurrence time VF / Occurrence time VP / Occurrence time VT: 50 min before aconitine 20 μg/kg i.v., n=10, x±s; for Antagonistic action against the arrhythmia induced by aconitine in rats: 100 and 200 mg/kg intragastric, result in words
Description: (§1) Models of experimental arrhythmia induced by aconitine and ouabain in rats and guinea pigs were constructed. The inventive compound and the hydrochloride thereof were administrated with dosages of 100 and 200 mg/kg, respectively. The positive medicament group was administrated with 10 mg/kg of Propranolol, and the control group was administrated with 0.5% carboxymethylcellulose sodium. Each group was administrated by gastric perfusion once. The occurrence times of ventricular premature contraction (VP), ventricular tachycardia (VT), ventricular fibrillation (VF) and cardiac arrest (CA) after administration of aconitine in rats were recorded; and the dosages of ouabain were also observed when VP, VT, VF and CA appeared.
Sixty Wistar rats were divided into 6 groups randomly: a control group, a positive medicament (Propranolol) group, high- and low-dosage groups (200 and 100 mg/kg) of the inventive compound and the hydrochloride thereof, respectively, 10 animals per group. Fifty minutes after intragastric administration, the animals of each groups were anaesthetized by injecting 10% chloral hydrate intraperitoneally and fixed in a supine position. A type II lead normal electrocardiogram was then recorded. After that, 20 μg/kg of aconitine was injected via sublingual vein, and the change of the electrocardiogram was observed. The occurrence times of ventricular premature contraction (VP), ventricular tachycardia (VT), ventricular fibrillation (VF) and cardiac arrest (CA) after administration of aconitine in the rats were recorded.
(§2) The experimental data were analyzed with the statistic software SPSS 10.0, and represented as x±s. The comparison among groups was analyzed by the intergroup comparison difference t test.

[3] = system: ouabain-induced arrhythmia in guinea pigs; test: Ouabain-induced arrhythmia in guinea pigs; format: in vivo, EWG/B guinea pigs; settings: for Dosages of ouabain CA / Dosages of ouabain VF / Dosages of ouabain VP / Dosages of ouabain VT: ouabain infused 5 μg/min, n=6, x±s; for Antagonistic action against the arrhythmia induced by ouabain in guinea pigs: 100 and 200 mg/kg intragastric, result in words
Description: as §1
Thirty-six guinea pigs were divided into 6 groups randomly: a control group, a positive medicament (Propranolol) group, high- and low-dosage groups (200 and 100 mg/kg) of the inventive compound and the hydrochloride thereof, respectively, 6 animals per group. Fifty minutes after intragastric administration, the animals of each groups were anaesthetized by injecting 10% chloral hydrate intraperitoneally and fixed in a supine position. After the external jugular vein was separated, intubation was performed and a constant-speed micro-infusion apparatus was installed. Then a type II lead normal electrocardiogram was recorded. After that, ouabain was infused via the external jugular vein at a constant rate of 5 μg/min, and the change of the electrocardiogram was observed. The dosages of ouabain when VP, VT, VF and CA occurred after administration of ouabain in the guinea pigs were recorded.
as §2

[4] = system: arrhythmia induced by coronary artery ligation in rats; test: Arrhythmia induced by coronary artery ligation in rats; format: in vivo, Wistar rats; settings: for Incidence rate of arrhythmia CA / Incidence rate of arrhythmia VF / Incidence rate of arrhythmia VT / Occurrence times CA / Occurrence times VF / Occurrence times VP / Occurrence times VT: rats, coronary artery ligation; for Occurrence times CA / Occurrence times VF / Occurrence times VP / Occurrence times VT: x±s
Description: Models of experimental arrhythmia induced by coronary artery ligation in rats were constructed. The inventive compound was administrated in a dose of 50, 100, 200 mg/kg, respectively. […] Each group wa administrated by gastric perfusion once. The occurrence times and the incidence rates of ventricular premature contraction (VP), ventricular tachycardia (VT), ventricular fibrillation […] and cardiac arrest (CA) after coronary artery ligation in rats were recorded.
The experimental data were analyzed with the statistic software SPSS 10.0, and represented as x±s. The intergroup comparison was analyzed by the intergroup difference comparison t test. The incidence rates were compared by χ^2 test.

[5] = background statement; result in words; cited from earlier work
[6] = 100 mg/kg intragastric, 100 mg/kg
[7] = 200 mg/kg intragastric, 200 mg/kg
[8] = 50 mg/kg by gastric perfusion once
[9] = 100 mg/kg by gastric perfusion once
[10] = 200 mg/kg by gastric perfusion once

## O=C(Cc1ccccc1)Nc1c2c(nc3c1CCCC3)CCCC2 (as salt: hydrochloride) [Hydrochloride of the inventive compound, hydrochloride of 1,2,3,4,5,6,7,8-octohydro-9-phenylacetamidoacridine]
other
  melting point: 231 to 234 °C

## O=C(Cc1ccccc1)Nc1c2c(nc3c1CCCC3)CCCC2 (hydrate or solvate) [Inventive compound, 1,2,3,4,5,6,7,8-octohydro-9-phenylacetamidoacridine]
other
  melting point: 234 to 236 °C

## Nc1c2c(nc3c1CCCC3)CCCC2 [9-amino-1,2,3,4,5,6,7,8-octohydroacridine]
[1]
  Inhibition activity for cholinesterase: proved to have an inhibition activity for cholinesterase

## O=C(Cc1ccccc1)Nc1c2c(nc3c1CCCC3)CCCC2 [Hydrochloride of the inventive compound, hydrochloride of 1,2,3,4,5,6,7,8-octohydro-9-phenylacetamidoacridine]
[2]; [6]
  Occurrence time CA: 907.2 ± 250.6 s
  Occurrence time VF: 640.4 ± 217.3 s
  Occurrence time VP: 17.3 ± 7.8 s
  Occurrence time VT: 84.4 ± 19.0 s
[2]; [7]
  Occurrence time CA: 911.2 ± 186.4 s
  Occurrence time VF: 660.2 ± 204.7 s
  Occurrence time VP: 22.6 ± 6.1 s
  Occurrence time VT: 98.6 ± 21.3 s
[2]
  Antagonistic action against the arrhythmia induced by aconitine in rats: significant antagonistic actions
[3]; [6]
  Dosages of ouabain CA: 280.3 ± 41.5 µg/kg
  Dosages of ouabain VF: 235.3 ± 36.3 µg/kg
  Dosages of ouabain VP: 171.8 ± 38.4 µg/kg
  Dosages of ouabain VT: 189.7 ± 30.3 µg/kg
[3]; [7]
  Dosages of ouabain CA: 370.4 ± 66.7 µg/kg
  Dosages of ouabain VF: 298.7 ± 49.1 µg/kg
  Dosages of ouabain VP: 189.5 ± 25.4 µg/kg
  Dosages of ouabain VT: 230.4 ± 35.3 µg/kg
[3]
  Antagonistic action against the arrhythmia induced by ouabain in guinea pigs: significant antagonistic actions

## O=C(Cc1ccccc1)Nc1c2c(nc3c1CCCC3)CCCC2 [Inventive compound, 1,2,3,4,5,6,7,8-octohydro-9-phenylacetamidoacridine]
[4]; rats, 50, 100, 200 mg/kg by gastric perfusion, result in words
  Antagonistic action against the experimental arrhythmia induced by coronary artery ligation in rats: significant antagonistic action
[4]; [8]
  Incidence rate of arrhythmia CA: 21.4%
  Incidence rate of arrhythmia VF: 35.7%
  Incidence rate of arrhythmia VT: 42.8%
  Occurrence times CA: 1141.8 ± 161.9 s
  Occurrence times VF: 930.5 ± 379.4 s
  Occurrence times VP: 82.3 ± 79.0 s
  Occurrence times VT: 773.8 ± 344.3 s
[4]; [9]
  Incidence rate of arrhythmia CA: 14.3* %
  Incidence rate of arrhythmia VF: 14.3* %
  Incidence rate of arrhythmia VT: 28.6* %
  Occurrence times CA: 1163.4 ± 124.6 s
  Occurrence times VF: 1148.3 ± 193.6 s
  Occurrence times VP: 90.1 ± 39.7 s
  Occurrence times VT: 920.5 ± 270.6 s
[4]; [10]
  Incidence rate of arrhythmia CA: 12.5* %
  Incidence rate of arrhythmia VF: 12.5* %
  Incidence rate of arrhythmia VT: 12.5** %
  Occurrence times CA: 1176.4 ± 729.2 s
  Occurrence times VF: 1115.0 ± 138.8 s
  Occurrence times VP: 107.3 ± 67.9 s
  Occurrence times VT: 1043.2 ± 247.1 s
[2]; [6]
  Occurrence time CA: 910.1 ± 276.5 s
  Occurrence time VF: 621.6 ± 203.7 s
  Occurrence time VP: 16.9 ± 8.3 s
  Occurrence time VT: 82.7 ± 21.0 s
[2]; [7]
  Occurrence time CA: 905.7 ± 170.3 s
  Occurrence time VF: 650.4 ± 193.3 s
  Occurrence time VP: 20.7 ± 6.9 s
  Occurrence time VT: 95.6 ± 20.6 s
[2]
  Antagonistic action against the arrhythmia induced by aconitine in rats: significant antagonistic actions
[3]; [6]
  Dosages of ouabain CA: 283.0 ± 46.5 µg/kg
  Dosages of ouabain VF: 230.5 ± 46.4 µg/kg
  Dosages of ouabain VP: 174.9 ± 41.7 µg/kg
  Dosages of ouabain VT: 184.1 ± 28.8 µg/kg
[3]; [7]
  Dosages of ouabain CA: 371.3 ± 69.6 µg/kg
  Dosages of ouabain VF: 294.5 ± 51.9 µg/kg
  Dosages of ouabain VP: 185.5 ± 24.8 µg/kg
  Dosages of ouabain VT: 228.3 ± 36.6 µg/kg
[3]
  Antagonistic action against the arrhythmia induced by ouabain in guinea pigs: significant antagonistic actions

## CC(C)NCC(O)COc1cccc2ccccc12 (stereo not shown) [Propranolol, reference compound]
[2]; 10 mg/kg intragastric
  Occurrence time CA: 913.7 ± 208.6 s
  Occurrence time VF: 705.6 ± 233.2 s
  Occurrence time VP: 23.6 ± 6.9 s
  Occurrence time VT: 101.6 ± 32.5 s
[3]; 10 mg/kg intragastric
  Dosages of ouabain CA: 390.6 ± 64.4 µg/kg
  Dosages of ouabain VF: 323.2 ± 71.4 µg/kg
  Dosages of ouabain VP: 201.3 ± 55.6 µg/kg
  Dosages of ouabain VT: 240.7 ± 48.78 µg/kg

## Nc1c2c(nc3ccccc13)CCCC2 [Tacrine, 9-amino-1,2,3,4-tetrahydroacridine]
[5]
  Hepatotoxicity: has a hepatotoxicity

— patent US8722701B2, “1,2,3,4,5 6,7,8-octohydro-9-phenylacetamidoacridine, the preparation method and medical use thereof” (priority 2010, dated 2014)
